Experiments:
[1] = test system: small intestine of male C57BL/6J mice after 12 Gy PBI; assay: 12 Gy γ-ray partial body irradiation (PBI) mouse model, intestinal injury and body weight at 2 weeks; format: in vivo
From the text: In addition, GGTi-298 (commercially available, MedChemExpress, Monmouth Junction, NJ) mitigated adverse effects of 12 Gy γ-ray PBI on villus height, crypt depth and crypt width. […] This bacterium is inversely associated with obesity, diabetes, inflammation and metabolic disorders. Lastly, PBI-induced increases in the percentage of Turicibacter and Clostridium species were mitigated by GGTi-2133. Several Clostridium species are known to be pathogenic, while an increase in Turicibacter depletes CD8+ lymphocytes in the gut, which can adversely affect gut immune function.
Data are represented as mean+/−standard deviation (SD; n=5 to 8 mice per group). “PBI” refers to partial body irradiation, and “Sham” refers to no PBI. The notations “a & b” refer to statistically significant difference from sham-irradiation and PBI, respectively. […] Both sham-irradiated mice and the PBI group received intraperitoneal administration of vehicle. […]
FIGS. 5A-5D are photomicrographs showing olfactomedin 4 (OLFM4) staining in the crypts of sham irradiated vehicle treated mice (FIGS. 5A), 12 Gy PBI plus vehicle treated mice (FIGS. […] 5D). Colors represent staining intensities: yellow (dark), red (medium), and green (weak). FIG. 5E is a bar graph showing the average staining intensity for dark, medium, and weak immunoreactivity obtained by analyzing 10 randomly selected crypts under 100× magnification from each mouse. Data are presented as mean+/−SD (n=5 to 8). The notation “a & b” refer to statistically significant difference from sham and PBI, respectively.
FIG. 6A is an H&E stained small intestinal section (20× magnification) to indicate how the villus height, crypt depth, and crypt width were measured with computerized analysis. […] Data are represented as mean+/−SD. The notation “a & b” refer to statistically significant difference from sham and PBI, respectively. Both sham-irradiated mice and the PBI group received intraperitoneal administration of vehicle.
Villus height and crypt depth were measured in 30 randomly selected villi and crypts (20× magnification), MSA was measured in 5 randomly selected areas (20× magnification), and enterocyte length and the length of their nucleus were measured in 3 enterocytes/villus in 10 villi (100× magnification) for each mouse.
Neutrophils and lymphocytes were scored under 40× magnification. Macrophages were scored in 30 villi under 100× magnification.
GGTi-2133 treatment increases the number of intestinal proliferating cells after PBI: Two proliferation markers (PCNA and Ki-67) were used. […] Cells were scored under 40× magnification.
Cells were scored under 20× magnification.
GGTi-2133 increases the expression of intestinal stem cell marker olfactomedin 4 (OLFM4) after PBI: The inventors assayed OLFM4 protein with immunohistochemistry and computerized image analysis to classify the immunoreactive regions as “dark,” “medium,” or “weak” based on staining intensity.
GGTi-298 treatment attenuates intestinal structural damage following PBI: In order to ensure another formulation of GGTi provides similar mitigation against intestinal damage following PBI, the inventors used GGTi-298 (MedChemExpress). […] Villus height, and crypt depth and width were measured in 30 randomly selected villi and crypts (20× magnification) for each mouse.

PANC-1 cell line = assay: Clonogenic assay (colony forming ability); format: cell-based, human; details: dose-dependent
PSN-1 cell line = assay: Clonogenic assay (colony forming ability); format: cell-based, human; details: dose-dependent
[2] = test system: BxPC-3 human pancreatic adenocarcinoma cell line; assay: MTT assay of cell proliferation and metabolic rate; format: cell-based; details: 3 concentrations, once a day for 4 days, time-dependent and dose-dependent
Experimental: (§1) Human pancreatic cancer cell lines (PANC-1, BxPC-3, PSN-1) and a human prostate cancer cell line (LNCaP) were cultured in vitro at 37° C. and 5% CO2 and incubated with GGTi-2133 at 3 different concentrations. Cell proliferation and metabolic rate were measured with an MTT assay once a day for a total of 4 days. GGTi-2133 reduced the cell proliferation rate in all 4 cell lines in a dose-dependent manner. […] Finally, GGTi-2133 reduced the metabolic activity in LNCaP cells exposed to ionizing radiation.
(§2) FIG. 10F is a bar graph showing cell proliferation and metabolic rate in the LNCaP cell line were reduced to a greater extent after combined treatment with 2 Gy radiation plus GGTi-2133 treatment, in comparison to singular treatment with either 2 Gy radiation or GGTi-2133. Data are represented as mean+/−SD (n=4).

[3] = test system: PSN-1 human pancreatic cancer cell line; assay: MTT assay of cell proliferation and metabolic rate; format: cell-based; details: 3 concentrations, once a day for 4 days, time-dependent and dose-dependent
Experimental: as §1, §2

[4] = test system: PANC-1 human pancreatic epithelioid carcinoma cell line; assay: MTT assay of cell proliferation and metabolic rate; format: cell-based; details: 3 concentrations, once a day for 4 days, time-dependent and dose-dependent
Experimental: as §1, §2

[5] = test system: small intestine crypts of male C57BL/6J mice after 12 Gy PBI; assay: Surviving crypt assay (PCNA) in small intestine on day 3.5 after 12 Gy PBI; format: in vivo, mouse; details: 2.5 mg/kg i.p. at 24 h and 72 h, jejunum day 3.5, vs PBI plus vehicle
Experimental: FIGS. 8A-8C are photomicrographs of small intestine sections stained for Proliferating Cell Nuclear Antigen (PCNA) in sham-irradiated vehicle treated mice (FIGS. 8A), 12 Gy PBI plus vehicle treated mice (FIG. 8B), and mice treated with 12 Gy PBI and 2.5 mg/kg GGTi-2133 on (FIG. 8C). Cross-sections from three different mice are shown in each of FIG. 8A, FIG. 8B, and FIG. 8C. Each mouse received two intraperitoneal injections of either vehicle or 2.5 mg/kg GGTi: the first injection was administered 24 hours after PBI and the second one was administered 72 hours after irradiation. Intestinal tissue was harvested 84 hours after irradiation. FIG. 8D is a bar graph showing the average number of surviving crypts from two intestinal cross sections that were used for data analysis. Crypts were scored under 20× magnification. Data are represented as mean+/−SD (n=8 animals per group). The notation “a & b” refer to statistically significant difference from sham and PBI, respectively.
GGTi-2133 treatment enhances surviving crypt number on day 3.5 after PBI: Male C57BL/6J mice were exposed to 12 Gy PBI and administered GGTi-2133 (2.5 mg/kg) at 24 hours and 72 hours after irradiation. A specimen of the jejunum was collected on day 3.5 after irradiation. The presence of more than five PCNA positive cells grouped together in a crypt was recorded as a surviving crypt. […]

[6] = test system: cecal content microbiome of male C57BL/6J mice; assay: Microbiome analysis of cecal content on day 3.5 after 12 Gy PBI; format: in vivo, mouse; details: 2.5 mg/kg at 24 and 72 h
Experimental: FIGS. 9A-9C are pie charts showing the distribution of different bacterial strains in the cecal content of sham-irradiated vehicle treated mice (FIGS. 9A), 12 Gy PBI plus vehicle treated mice (FIG. 9B), and mice treated with […] and 2.5 mg/kg GGTi-2133 in two administrations (FIG. 9C).
GGTi-2133 alters the percent of 3 bacterial species in the cecal content of mice on day 3.5 after PBI: Male C57BL/6J mice were exposed to 12 Gy PBI and administered GGTi-2133 (2.5 mg/kg) at 24 hours and 72 hours after irradiation. A sample of cecal content was aseptically collected 3.5 days after PBI. […] There were 8 mice in each group. […] GGTi-2133 increased the percentage of Akkermansia muciniphila in irradiated mice. The percentage of Turicibacter and Clostridium species were increased in PBI plus vehicle treated mice as compared to sham-irradiated vehicle-treated mice. The percentage of Turicibacter and Clostridium species were reduced in PBI plus GGTi-2133 treated mice compared to PBI plus vehicle treated mice.

[7] = test system: LNCaP androgen-sensitive human prostate adenocarcinoma cell line; assay: MTT assay of cell proliferation and metabolic rate, with or without 2 Gy radiation; format: cell-based
Experimental: as §1, §2

[8] = Safe dose in humans (scientific literature); format: in vivo, human; details: body surface conversion factor; 54 mg/kg in humans
Experimental: Based on scientific literature, it is understood that GGTi-2418 can be administered safely to humans in doses up to 2,060 mg/m^2 (54 mg/kg body weight) on days 1-5 of each 21-day cycle. By using a body surface conversion factor, 54 mg/kg in humans compares to 660 mg/kg in mice. In humans, GGTi can generally be administered in an effective amount with a dose escalation from about 200 mg/m^2 to 2060 mg/m^2 per day on days 1-5 of each 21-day cycle. In rats, the maximum tolerated dose for GGTi is 200 mg/kg for a single dosing or 150 mg/kg/day for 7 consecutive days. In addition to intraperitoneal administration, oral gavage, intravenous infusion, and subcutaneous administration are other acceptable modes of administration. While GGTi-298 and GGTi-2133 are the preferred GGTis in the method of the present invention, use of other GGTis are expected to show the same effects although the magnitude of the effects may not be as great.

[9] = days 1-5 of each 21-day cycle; cited from earlier work
[10] = 12 Gy PBI, 5 or 10 mg/kg body weight, vs vehicle
[11] = 12 Gy PBI, i.p. 1 or 2.5 mg/kg three times per week starting 24 h after PBI, 2 weeks, vs vehicle
[12] = 12 Gy PBI, i.p. 1 or 2.5 mg/kg, vs PBI plus vehicle

COC(=O)[C@H](CC(C)C)NC(=O)c1ccc(NC[C@@H](N)CS)cc1-c1cccc2ccccc12 [GGTi-298]
PBI-induced increase in crypt depth [1, 10]: attenuated | PBI-induced increase in crypt width [1, 10]: attenuated | PBI-induced reduction in villus height [1, 10]: attenuated

CC(C)C[C@H](NC(=O)c1ccc(NCc2cnc[nH]2)cc1-c1cccc2ccccc12)C(=O)O [GGTi-2133]
colony forming ability (PANC-1 cell line): suppresses | colony forming ability (PSN-1 cell line): suppresses | proliferation rate and metabolic activity (MTT) [2]: suppresses | proliferation rate and metabolic activity (MTT) [3]: suppresses | proliferation rate and metabolic activity (MTT) [4]: suppresses | number of surviving crypts [5]: significantly (p=0.002) increased | percentage of Akkermansia muciniphila in cecal content ([6]; irradiated mice): increased | percentage of Clostridium species in cecal content ([6]; vs PBI plus vehicle): reduced | percentage of Turicibacter species in cecal content ([6]; vs PBI plus vehicle): reduced | proliferation rate and metabolic activity (MTT) ([7]; 3 concentrations, once a day for 4 days, time-dependent and dose-dependent): suppresses | radiation-induced decline in proliferation rate and metabolic activity ([7]; combined with 2 Gy radiation vs either treatment alone): enhances | OLFM4 (intestinal stem cell marker) staining ([1]; 2 weeks after 12 Gy γ-ray PBI, immunohistochemistry, 1 or 2.5 mg/kg): restored | PBI-induced body weight loss ([1]; 12 Gy PBI, 2.5 mg/kg body weight i.p., vs vehicle): significantly less | proliferating cell number in the crypts (PCNA and Ki-67) ([1]; 12 Gy PBI, 2.5 mg/kg body weight, vs PBI plus vehicle): significantly increased | PBI-induced decrease in mucosal surface area (MSA) [1, 11]: attenuated | PBI-induced increase in crypt depth [1, 11]: attenuated | PBI-induced increase in enterocyte length [1, 11]: attenuated | PBI-induced increase in enterocyte nuclear length [1, 11]: attenuated | PBI-induced reduction in villus height [1, 11]: attenuated | Alcian blue staining intensity of goblet cells [1, 12]: significantly enhanced | intraepithelial macrophage (CD68) number per villus [1, 12]: decrease | lymphocyte (CD3ε positive) number in the intestine [1, 12]: significant recovery | neutrophil (MPO positive) number in the intestine [1, 12]: significant recovery | number of mucus secreting goblet cells (Alcian blue) [1, 12]: elevated | stromal macrophage (CD68) number per villus [1, 12]: decrease

Cc1nc[nH]c1CN1CCN(C(=O)N[C@@H](CC(C)C)C(=O)O)[C@@H](Cc2ccccc2)C1=O [GGTi-2418]
mouse equivalent of the safe human dose [8]: 660 mg/kg | dose that can be administered safely to humans [9]: up to 2,060 mg/m^2 | dose that can be administered safely to humans, per body weight [9]: ≤ 54 mg/kg body weight
